Here are results for eight molecules from ChEMBL document CHEMBL4229475, “Synthesis of novel imidazopyridines and their biological evaluation as potent anticancer agents: A promising candidate for glioblastoma” (Bioorg Med Chem Lett, 2018).

SMILES strings stand for the structures. Active and inactive are the calls of the source. No cut-off for these calls is given here.

For assay [1], the system named is LN-405. Put plainly: Cytotoxicity against human LN405 cells assessed as decrease in cell viability at 100 uM after 96 hrs by MTT assay. The class given is functional, cell-based.
In assay [2] the test system is LN-405. The assay can be described thus: Cytotoxicity against human LN405 cells assessed as cell viability at 100 uM after 96 hrs by MTT assay relative to control. The class given is functional. The following applies: LN-405, 96 h, read-out: Activity. For orientation: Tetrazolium assays rely on reduction of a dye to a coloured formazan, in cell work by metabolically active cells.

The test system of assay [3] is LN-405. Put plainly: Cytotoxicity against human LN405 cells assessed as decrease in cell viability after 96 hrs by MTT assay. The note with it: LN-405, 96 h. The class given is functional, cell-based.
Assay [4] concerns LN-405. Put plainly: Induction of DNA damage in human LN405 cells assessed as cell with damage DNA at IC50 after 72 hrs by COMET assay (reference value: 0.7%). The class given is functional.
Assay [5] is described as follows: Cytotoxicity against human WS1 cells assessed as decrease in cell viability after 96 hrs by MTT assay. The class given is cell-based. The note with it: WS1, 96 h.
Assay [6] deals with LN-405. Put plainly: Cell cycle arrest in human LN405 cells assessed as accumulation at G0/G1 phase at IC50 after 72 hrs by propidium iodide staining-based flow cytometric method relative to control. The class given is functional.
Assay [7] deals with LN-405. The assay can be described thus: Cell cycle arrest in human LN405 cells assessed as decrease in cell levels at S phase at IC50 after 72 hrs by propidium iodide staining-based flow cytometric method. The class given is functional. Background: In flow cytometry, cells or beads pass a laser one at a time.

For `CC1CCN(c2cc(-c3ccc(-c4ccccc4)cc3)c3nc(-c4ccc(-c5ccccc5)cc4)cn3c2)CC1`, the outcome with LN-405 [1] was inactive.
Same read-out and setting: as for `CC1CCN(c2cc(-c3ccc(Br)s3)c3nc(-c4ccc(Br)s4)cn3c2)CC1`, the entry is “inactive”.
As usually defined, the IC50 is the concentration at which inhibition is half-maximal. As for `CC1CCN(c2cc(-c3ccc(F)cc3)c3nc(-c4ccc(F)cc4)cn3c2)CC1`, the viability at 100 µM in the assay with LN-405 [2] was 32%. The IC50 in the assay with LN-405 [3] came out at 75 µM; in assay [5], 844 µM. Besides, the Activity in the assay on LN-405 [4] is on record as 0.9%; with LN-405 [6], 98.2%. Besides, the outcome with LN-405 [7] was Active.
In the case of `CC1CCN(c2cc(-c3ccc4ccccc4c3)c3nc(-c4ccc5ccccc5c4)cn3c2)CC1`, the outcome in the assay with LN-405 [1] was inactive.
`CC1CCN(c2cc(-c3ccccc3)c3nc(-c4ccccc4)cn3c2)CC1`: the viability at 100 µM in the assay with LN-405 [2] turned out to be 6%. In addition, the IC50 with LN-405 [3] came to 10 µM; in assay [5], 480 µM. Further, the Activity is reported as 14% in the assay on LN-405 [4] and 99.2% in the assay on LN-405 [6]. The result in the assay with LN-405 [7] was Active.
Regarding `CC1CCN(c2cc(-c3ccc(Br)cc3)c3nc(-c4ccc(Br)cc4)cn3c2)CC1`, in the assay with LN-405 [1], the result was inactive.
Same read-out and setting: as for `CC1CCN(c2cc(-c3cccs3)c3nc(-c4cccs4)cn3c2)CC1`, the entry is “inactive”.
In the case of `COc1ccc(-c2cn3cc(N4CCC(C)CC4)cc(-c4ccc(OC)cc4)c3n2)cc1`, the viability at 100 µM in the assay on LN-405 [2] was 80%.
